# Earlier results, collected in patent publication US20170216178A1, “Cosmetic or Dermatological Composition Containing Retinaldehyde and DNA” (GALEPHAR PHARMACEUTICAL RESEARCH, INC., priority 2016, published 2017).
# How the values were obtained:
# P. acnes = conditions: against P. acnes
# skin cancer = conditions: mice
# skin = conditions: topical; compared with retinoids
# comedones = conditions: topical; compared with retinoic acid (tretinoin); rhino mouse model
structure (smiles),measurement,setting,value
O=C(O)CCCCCCCC(=O)O [azelaic acid],intra-follicular antibacterial activity,P. acnes,showed an intra-follicular antibacterial activity
O=C(OOC(=O)c1ccccc1)c1ccccc1 [benzoyl peroxide],potential for the development of skin cancer,skin cancer,may increase the potential for the development of skin cancer
CC1=C(/C=C/C(C)=C/C=C/C(C)=C/C=O)C(C)(C)CCC1 [retinaldehyde],skin tolerance,skin,significantly higher skin tolerance
same,comedolytic action,comedones,identical to that of retinoic acid
